Experimental data taken from patent publication US10030027B2, “Soluble guanylate cyclase stimulators” (MERCK SHARP & DOHME CORP., priority 2015, dated 2018).

How the values were obtained:
sGC α1/β1 heterodimer = sGC α1/β1 heterodimer (Homo sapiens (Human), UniProt Q02108+Q02153); assay: Cell-based sGC functional assay (cyclic GMP assay for sGC activator: CASA assay); conditions: CHO-K1/sGC cells; for Emax: CHO-K1, activity expressed as percentage of compound A (standard), read-out: % Activation; for EC50: inflection point, 4P fit, read-out: IP
Method in brief: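 CHO-K1 cells stably expressing sGC α1/β1 were pre-incubated with or without 1 μM DETA-NO (30 min, 25 °C), then exposed to compounds for 1 hr at 37 °C with 0.5 mM IBMX. Intracellular cGMP was read by HTRF and expressed as a percentage of a reference heme-dependent activator's maximum.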

[1] = biological target: human recombinant sGC enzyme (Homo sapiens (Human), UniProt Q02108+Q02153); assay: Size Exclusion Chromatography (SEC) competition binding assay using [3H] Ex-77B as the radioligand; conditions: [3H] Ex-77B radioligand, 24 hours at 37° C.
Method in brief: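 Recombinant human sGC binding measured by competition against tritiated Ex-77B radioligand, with non-specific binding defined by 1 μM unlabeled Ex-77B.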

[2] = tested on: Spontaneously hypertensive rats (SHR); assay: Acute efficacy in spontaneously hypertensive rats (SHR); format: in vivo, rat
Method in brief: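 Conscious male SHR with aortic telemetry implants given a single oral gavage of compound in 10% transcutol/20% Cremophor/70% water. Blood pressure sampled continuously, averaged hourly and corrected against vehicle baseline recorded the previous day; maximum peak systolic BP decrease reported at stated oral dose (mg/kg).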

[3] = tested on: hypoxia-induced pulmonary hypertension rat; assay: Acute efficacy in hypoxia-induced pulmonary hypertension in rat following intratracheal administration; format: in vivo
Text: Acute Efficacy in Hypoxia-Induced Pulmonary Hypertension in Rat Following Intratracheal Administration Charles River Sprague-Dawley (CD) male rats weighing approximately 350 g were implanted with HD-S21 dual pressure telemetry transmitters (Data Sciences International (DSI)) into the pulmonary artery and femoral artery. This transmitter enables simultaneous measurement of both pulmonary and systemic hemodynamic parameters in the same animal. After a 7-10 day post-operative recovery period, animals were subjected to a normobaric hypoxic (10% oxygen) environment using a Higher Peak Mountain Air Generator (MAG-10) connected to a modified rodent cage via a fitted inlet port. Oxygen (at 10%), temperature, humidity, and CO2 were controlled within normal range and animals were maintained on a 12 hour light-dark cycle with ad libitum access to food and water. After two weeks exposure to 10% O2 hypoxic environment, systolic pulmonary arterial pressure readings increased from 25 mmHg to greater than 50 mmHg. Using a 48 hour baseline average, animals with readings between 50-110 mmHg (standard deviation of less than 10 mmHg) and minimal changes in systolic systemic blood pressure were enrolled for study. Animals were utilized for up to 2 studies per week for 4 weeks with a minimum of 2 days washout between doses of test agent. Compound or vehicle was administered intra-tracheally under light isoflurane anesthesia (5% in oxygen; flow rate 2.0 L/min for 3 minutes). Once anesthetized, rats were placed on an angled intubation stand in supine position and the trachea visualized using a small laryngoscope. Animals then received either 0.5 mL/kg of vehicle or 0.5 mL/kg vehicle containing compound intra-tracheally delivered via microsprayer by use of a Penn-Century Microsprayer® needle 3″ (Model IA-1B-GP) attached to a 1 mL high pressure syringe (Penn Century-Model B-SYR-PL1000) (Penn-Century, Philadelphia, Pa.). The Microsprayer® tip was inserted into the trachea up to the point at which the bend in the needle is close to the tip of the snout, which positions the tip of the Microsprayer® in front of the carina (bifurcation of trachea at the bronchi). After dose delivery the animal is placed on its back in the home cage for recovery. Hemodynamic measurements were continuously recorded and readings consolidated to hourly moving averages. Each animal received a vehicle on Day 1 followed by vehicle or test agent on Day 2. Change from vehicle baseline was calculated by subtracting the hourly Day 1 vehicle response from the hourly Day 2 response and treatment group data was expressed as mean±SEM. Decreases of systolic blood pressure (SBP) and systolic pulmonary arterial pressure (PAP) were measured at a particular IT dose (mpk milligrams per kilogram) for the following Example compounds.

Structure (SMILES): C[C@@]1(c2ccc(CCC(=O)O)cc2)C(=O)Nc2nc(-c3nn(CCC(F)(F)C(F)(F)F)c4ncccc34)nc(N)c21 (single isomer, unassigned) [Example 7A]
- Emax (sGC α1/β1 heterodimer): 98%
- EC50 (sGC α1/β1 heterodimer): 1030 nM
- Ki [1]: 0.154 nM
- Category: maximum peak decrease of systolic blood pressure (SBP) in SHR ([2]; Dose P.O. 3 mpk): A (decrease in SBP in SHRs 5-25 mmHg)
- Category: decrease in SBP (at minimum decrease in PAP of ≥15 mmHg) ([3]; Dose IT 0.1 mpk): B (decrease in SBP 5-10 mmHg)

Structure (SMILES): CC(C)(Cc1csc([C@]2(C)C(=O)Nc3nc(-c4nn(CCC(F)(F)C(F)(F)F)c5ncccc45)nc(N)c32)n1)C(=O)O (single isomer, unassigned) [Example 77B]
- Emax (sGC α1/β1 heterodimer): 105%
- EC50 (sGC α1/β1 heterodimer): 489 nM
- Ki [1]: 0.232 nM
- Category: maximum peak decrease of systolic blood pressure (SBP) in SHR ([2]; Dose P.O. 1 mpk): C (decrease in SBP in SHRs>40 mmHg)
- Category: decrease in SBP (at minimum decrease in PAP of ≥15 mmHg) ([3]; Dose IT 0.03 mpk): A (decrease in SBP 0-5 mmHg)

Structure (SMILES): CC(C)(Cc1coc(C2(C)C(=O)Nc3nc(-c4nn(CCC(F)(F)C(F)(F)F)c5cc(Cl)ccc45)nc(N)c32)n1)C(=O)O (stereo not shown) [Example 2A, 3-(2-{4-amino-2-[6-chloro-1-(3,3,4,4,4-pentafluorobutyl)-1H-indazol-3-yl]-5-methyl-6-oxo-6,7-dihydro-5H-pyrrolo[2,3-d]pyrimidin-5-yl}oxazol-4-yl)-2,2-dimethyl-propanoic acid]
- Emax (sGC α1/β1 heterodimer): 111%
- EC50 (sGC α1/β1 heterodimer): 1060 nM
- Ki [1]: 0.322 nM
- Category: maximum peak decrease of systolic blood pressure (SBP) in SHR ([2]; Dose P.O. 3 mpk): A (decrease in SBP in SHRs 5-25 mmHg)
- Category: decrease in SBP (at minimum decrease in PAP of ≥15 mmHg) ([3]; Dose IT 0.03 mpk): A (decrease in SBP 0-5 mmHg)

Structure (SMILES): C[C@@]1(c2ccc(CCC(=O)O)cc2)C(=O)Nc2nc(-c3nn(CCC(F)(F)C(F)(F)F)c4cc(Cl)ccc34)nc(N)c21 [Example 10B, (S)-3-(4-{4-Amino-2-[6-chloro-1-(3,3,4,4,4-pentafluorobutyl)-1H-indazol-3-yl]-5-methyl-6-oxo-6,7-dihydro-5H-pyrrolo[2,3-d]pyrimidin-5-yl}phenyl)propanoic acid]
- Emax (sGC α1/β1 heterodimer): 117%
- EC50 (sGC α1/β1 heterodimer): 456 nM
- Ki [1]: 0.15 nM
- Category: maximum peak decrease of systolic blood pressure (SBP) in SHR ([2]; Dose P.O. 3 mpk): A (decrease in SBP in SHRs 5-25 mmHg)
- Category: decrease in SBP (at minimum decrease in PAP of ≥15 mmHg) ([3]; Dose IT 0.01 mpk): A (decrease in SBP 0-5 mmHg)

Structure (SMILES): C[C@@]1(c2ccc(CCC(=O)O)cc2)C(=O)Nc2nc(-c3nn(Cc4ccccc4F)c4ncccc34)nc(N)c21 [Example 21B, (S)-3-(4-{4-amino-2-[1-(2-fluorobenzyl)-1H-pyrazolo[3,4-b]pyridin-3-yl]-5-methyl-6-oxo-6,7-dihydro-5H-pyrrolo[2,3-d]pyrimidin-5-yl}phenyl)propanoic acid]
- Emax (sGC α1/β1 heterodimer): 93%
- EC50 (sGC α1/β1 heterodimer): 362 nM
- Ki [1]: 0.064 nM
- Category: maximum peak decrease of systolic blood pressure (SBP) in SHR ([2]; Dose P.O. 3 mpk): A (decrease in SBP in SHRs 5-25 mmHg)
- Category: decrease in SBP (at minimum decrease in PAP of ≥15 mmHg) ([3]; Dose IT 0.03 mpk): A (decrease in SBP 0-5 mmHg)

Structure (SMILES): C[C@@]1(c2ccc(CCC(=O)O)cc2)C(=O)Nc2nc(-c3nn(CC4CCCC4)c4cc(Cl)ccc34)nc(N)c21 [Example 160B, (S)-3-(4-{4-amino-2-[6-chloro-1-(cyclopentylmethyl)-1H-indazol-3-yl]-5-methyl-6-oxo-6,7-dihydro-5H-pyrrolo[2,3-d]pyrimidin-5-yl}phenyl)propanoic acid]
- Emax (sGC α1/β1 heterodimer): 108%
- EC50 (sGC α1/β1 heterodimer): 111 nM
- Ki [1]: 0.062 nM
- Category: decrease in SBP (at minimum decrease in PAP of ≥15 mmHg) ([3]; Dose IT 0.01 mpk): B (decrease in SBP 5-10 mmHg)

Structure (SMILES): C[C@@]1(c2ccc(CCC(=O)O)cc2)C(=O)Nc2nc(-c3nn(CC4CC(F)(F)C4)c4cc(Cl)ccc34)nc(N)c21 [Example 163B, (S)-3-{4-[4-amino-2-{6-chloro-1-[(3,3-difluorocyclo-butyl)methyl]-1H-indazol-3-yl}-5-methyl-6-oxo-6,7-dihydro-5H-pyrrolo[2,3-d]pyrimidin-5-yl]phenyl}propanoic acid]
- Emax (sGC α1/β1 heterodimer): 90.8%
- EC50 (sGC α1/β1 heterodimer): 408 nM
- Ki [1]: 1.85 nM
- Category: decrease in SBP (at minimum decrease in PAP of ≥15 mmHg) ([3]; Dose IT 0.03 mpk): C (decrease in SBP>10 mmHg)

Structure (SMILES): CC(C)(Cc1csc([C@]2(C)C(=O)Nc3nc(-c4nn(Cc5ncccc5F)c5cc(Cl)ccc45)nc(N)c32)n1)C(=O)O [Example 185A, (S)-3-{2-[4-amino-2-{6-chloro-1-[(3-fluoropyridin-2-yl)methyl]-1H-indazol-3-yl}-5-methyl-6-oxo-6,7-dihydro-5H-pyrrolo[2,3-d]pyrimidin-5-yl]-1,3-thiazol-4-yl}-2,2-dimethyl-propanoic acid]
- Emax (sGC α1/β1 heterodimer): 110%
- EC50 (sGC α1/β1 heterodimer): 426 nM
- Ki [1]: 0.165 nM
- Category: decrease in SBP (at minimum decrease in PAP of ≥15 mmHg) ([3]; Dose IT 0.01 mpk): A (decrease in SBP 0-5 mmHg)

Structure (SMILES): CC(C)(Cc1coc(C2(C)C(=O)Nc3nc(-c4nn(Cc5cccc(F)c5)c5cc(F)ccc45)nc(N)c32)n1)C(=O)O (stereo not shown) [Example 195A, 3-(2-{4-amino-2-[6-fluoro-1-(3-fluorobenzyl)-1H-indazol-3-yl]-5-methyl-6-oxo-6,7-dihydro-5H-pyrrolo[2,3-d]pyrimidin-5-yl}-1,3-oxazol-4-yl)-2,2-dimethyl-propanoic acid]
- Emax (sGC α1/β1 heterodimer): 103%
- EC50 (sGC α1/β1 heterodimer): 194 nM
- Ki [1]: 0.092 nM
- Category: decrease in SBP (at minimum decrease in PAP of ≥15 mmHg) ([3]; Dose IT 0.01 mpk): B (decrease in SBP 5-10 mmHg)

Structure (SMILES): CC(C)(Cc1coc(C2(C)C(=O)Nc3nc(-c4nn(CC5CCCCC5)c5cc(F)ccc45)nc(N)c32)n1)C(=O)O (stereo not shown) [Example 202A, 3-(2-{4-amino-2-[1-(cyclohexyl-methyl)-6-fluoro-1H-indazol-3-yl]-5-methyl-6-oxo-6,7-dihydro-5H-pyrrolo[2,3-d]pyrimidin-5-yl}-1,3-oxazol-4-yl)-2,2-dimethyl-propanoic acid]
- Emax (sGC α1/β1 heterodimer): 122%
- EC50 (sGC α1/β1 heterodimer): 212 nM
- Ki [1]: 0.186 nM
- Category: decrease in SBP (at minimum decrease in PAP of ≥15 mmHg) ([3]; Dose IT 0.01 mpk): A (decrease in SBP 0-5 mmHg)

Structure (SMILES): CC(C)(CCc1coc(C2(C)C(=O)Nc3nc(-c4nn(Cc5ccccc5F)c5ccccc45)nc(N)c32)n1)C(=O)O (stereo not shown) [Example 220B, 4-(2-{4-amino-2-[1-(2-fluorobenzyl)-1H-indazol-3-yl]-5-methyl-6-oxo-6,7-dihydro-5H-pyrrolo[2,3-d]pyrimidin-5-yl}-1,3-oxazol-4-yl)-2,2-dimethyl-butanoic acid]
- Emax (sGC α1/β1 heterodimer): 113%
- EC50 (sGC α1/β1 heterodimer): 82 nM
- Ki [1]: 0.087 nM
- Category: decrease in SBP (at minimum decrease in PAP of ≥15 mmHg) ([3]; Dose IT 0.01 mpk): B (decrease in SBP 5-10 mmHg)

Structure (SMILES): CC(C)(Cc1csc([C@]2(C)C(=O)Nc3nc(-c4nn(Cc5cccc(F)c5)c5ccccc45)nc(N)c32)n1)C(=O)O [Example 222A, (S)-3-(2-{4-amino-2-[1-(3-fluoro-benzyl)-1H-indazol-3-yl]-5-methyl-6-oxo-6,7-dihydro-5H-pyrrolo[2,3-d]pyrimidin-5-yl}-1,3-thiazol-4-yl)-2,2-dimethyl-propanoic acid]
- Emax (sGC α1/β1 heterodimer): 105%
- EC50 (sGC α1/β1 heterodimer): 71 nM
- Ki [1]: 0.112 nM
- Category: decrease in SBP (at minimum decrease in PAP of ≥15 mmHg) ([3]; Dose IT 0.01 mpk): B (decrease in SBP 5-10 mmHg)

Structure (SMILES): CC1(c2nc(CCC(=O)O)c[nH]2)C(=O)Nc2nc(-c3nn(Cc4ccccc4F)c4cc(Cl)ccc34)nc(N)c21 (stereo not shown) [Example 235B, 3-(2-{4-Amino-2-[6-chloro-1-(2-fluorobenzyl)-1H-indazol-3-yl]-5-methyl-6-oxo-6,7-dihydro-5H-pyrrolo[2,3-d]pyrimidin-5-yl}-1H-imidazol-4-yl)propanoic acid]
- Emax (sGC α1/β1 heterodimer): 86.8%
- EC50 (sGC α1/β1 heterodimer): 626 nM
- Ki [1]: 0.404 nM
- Category: decrease in SBP (at minimum decrease in PAP of ≥15 mmHg) ([3]; Dose IT 0.01 mpk): A (decrease in SBP 0-5 mmHg)

Structure (SMILES): CC(C)(Cc1coc(C2(C)C(=O)Nc3nc(-c4nn(Cc5ccccc5F)c5cc(Cl)ccc45)nc(N)c32)n1)c1nn[nH]n1 (stereo not shown) [Example 239A, 4-amino-2-[6-chloro-1-(2-fluorobenzyl)-1H-indazol-3-yl]-5-methyl-5-{4-[2-methyl-2-(2H-tetrazol-5-yl)propyl]-1,3-oxazol-2-yl}-5,7-dihydro-6H-pyrrolo[2,3-d] pyrimidin-6-one]
- Emax (sGC α1/β1 heterodimer): 62.3%
- EC50 (sGC α1/β1 heterodimer): 350 nM
- Ki [1]: 0.068 nM
- Category: decrease in SBP (at minimum decrease in PAP of ≥15 mmHg) ([3]; Dose IT 0.01 mpk): A (decrease in SBP 0-5 mmHg)
